Data published in ChEMBL document CHEMBL5705903, “A DNA Hypomethylation Signature Predicts Antitumor Activity of LSD1 Inhibitors in SCLC” (Cancer Cell, 2015).
Calls of active or inactive are those of the source. The calls are words filed in the database; no cut-off is given here.

Key:
[1] = Effect on cleaved PARP level in human NCI-H146 cells assessed as fold change at 1000 nM measured after 10 days by Western blot analysis (reference value: 1.00); assay type: functional; settings: time 10 day
[2] = Effect on cleaved PARP level in human NCI-H146 cells assessed as relative expression at 1000 nM measured after 7 days by Western blot analysis (reference value: […]); assay type: functional; settings: time 7 day
[3] = Effect on cleaved PARP level in human NCI-H510 cells assessed as fold change at 100 nM measured after 7 days by Western blot analysis (reference value: 1.00); assay type: functional, NCI-H510A; settings: time 7 day
[4] = Effect on cleaved PARP level in human NCI-H1694 cells assessed as relative expression at 1000 nM measured after 7 days by Western blot analysis (reference value: 0.25); assay type: functional; settings: time 7 day
[5] = Effect on cleaved PARP level in human NCI-H2171 cells assessed as fold change at 1000 nM measured after 10 days by Western blot analysis (reference value: 1.00); assay type: functional; settings: time 10 day
[6] = Effect on cleaved PARP level in human NCI-H510 cells assessed as relative expression at 100 nM measured after 14 days by Western blot analysis (reference value: 0.01); assay type: functional, NCI-H510A; settings: time 14 day
[7] = Effect on cleaved PARP level in human NCI-H69 cells assessed as fold change at 100 nM measured after 10 days by Western blot analysis (reference value: 1.00); assay type: functional; settings: time 10 day
[8] = Effect on cleaved PARP level in human NCI-H524 cells assessed as fold change at 10 nM measured after 14 days by Western blot analysis (reference value: 1.00); assay type: functional; settings: time 14 day
[9] = Effect on cleaved PARP level in human NCI-H69 cells assessed as relative expression at 10 nM measured after 7 days by Western blot analysis (reference value: 0.02); assay type: functional; settings: time 7 day
[10] = Effect on cleaved PARP level in human NCI-H889 cells assessed as relative expression at 10 nM measured after 7 days by Western blot analysis (reference value: 0.34); assay type: functional; settings: time 7 day
[11] = Cmax in mouse tumor at 5 mg/kg, po by HPLC/MS/MS analysis; assay type: ADME, organism-based, Neoplasm
[12] = Effect on cleaved PARP level in human NCI-H526 cells assessed as relative expression at 10 nM measured after 14 days by Western blot analysis (reference value: 0.66); assay type: functional; settings: time 14 day
NCI-H526 [13] = assay: In vivo inhibition of LSD1 in human NCI-H526 cells xenografted in nude mouse assessed as change in LIX1L gene expression measured after 24 hrs post single administration by qRT-PCR analysis; assay type: functional, organism-based; settings: dose 0.06-135 mg/kg
NCI-H510A [14] = assay: Antitumor activity against human NCI-H510A cells xenografted in nude mouse assessed as tumor growth inhibition at 1.5 mg/kg, po administered daily measured twice weekly relative to control; assay type: functional; settings: read-out: TGI
[15] = Effect on cleaved PARP level in human COLO-668 cells assessed as fold change at 100 nM measured after 7 days by Western blot analysis (reference value: 1.00); assay type: functional; settings: time 7 day
[16] = Effect on cleaved PARP level in human NCI-H1694 cells assessed as relative expression at 10 nM measured after 14 days by Western blot analysis (reference value: 0.25); assay type: functional; settings: time 14 day
[17] = Toxicity in dog assessed as thrombocytopenia measured for 28 days; parameters: species or system Canis lupus familiaris; settings: in vivo, 672 h, time 28 day
[18] = Effect on cleaved PARP level in human NCI-H524 cells assessed as relative expression at 10 nM measured after 7 days by Western blot analysis (reference value: 0.63); assay type: functional; settings: time 7 day
[19] = Effect on cleaved PARP level in human NCI-H889 cells assessed as fold change at 10 nM measured after 14 days by Western blot analysis (reference value: 1.00); assay type: functional; settings: time 14 day
[20] = Effect on cleaved PARP level in human NCI-H1694 cells assessed as fold change at 10 nM measured after 7 days by Western blot analysis (reference value: 1.00); assay type: functional; settings: time 7 day
NCI-H1417 [21] = assay: Antitumor activity against human NCI-H1417 cells xenografted in nude mouse assessed as decrease in GRP expression at 1.5 mg/kg administrated daily by qRT-PCR analysis; assay type: functional, organism-based; settings: time 1-14 day, TDE = time-dependent effect
NCI-H1417 [22] = assay: In vivo inhibition of LSD1 in human NCI-H1417 cells xenografted in nude mouse assessed as change in LBH gene expression measured after 24 hrs post single administration by qRT-PCR analysis; assay type: functional, organism-based; settings: dose 0.02-135 mg/kg
NCI-H526 [23] = assay: In vivo inhibition of LSD1 in human NCI-H526 cells xenografted in nude mouse assessed as change in FEZ1 gene expression administrated daily for 5 days by qRT-PCR analysis; assay type: functional, organism-based; settings: dose 0.02-135 mg/kg, time 5.0 day
[24] = Effect on cleaved PARP level in human NCI-H2171 cells assessed as fold change at 1000 nM measured after 7 days by Western blot analysis (reference value: 1.00); assay type: functional; settings: time 7 day
NCI-H510A [25] = assay: Effect on NCAM gene expression in human NCI-H510A cells at 1 uM measured after 4 days by qRT-PCR analysis; assay type: functional, cell-based; settings: time 4.0 day
NCI-H526 [26] = assay: Antitumor activity against human NCI-H526 cells xenografted in nude mouse assessed as tumor growth inhibition at 0.5 mg/kg, po administered daily measured twice weekly relative to control; assay type: functional; settings: read-out: TGI
[27] = Effect on cleaved PARP level in human NCI-H524 cells assessed as fold change at 10 nM measured after 10 days by Western blot analysis (reference value: 1.00); assay type: functional; settings: time 10 day
NCI-H526 [28] = assay: In vivo inhibition of LSD1 in human NCI-H526 cells xenografted in nude mouse assessed as change in ODZ2 gene expression measured after 24 hrs post single administration by qRT-PCR analysis; assay type: functional, organism-based; settings: dose 0.06-135 mg/kg
[29] = Effect on cleaved PARP level in human NCI-H524 cells assessed as fold change at 10 nM measured after 7 days by Western blot analysis (reference value: 1.00); assay type: functional; settings: time 7 day
NCI-H526 [30] = assay: Effect on global H3K4me2 level in human NCI-H526 cells at 10 to 1000 nM measured after 24 hrs by Western blot analysis; assay type: functional, cell-based; settings: dose 10-1000 nM
[31] = Tmax in mouse blood at 5 mg/kg, po by HPLC/MS/MS analysis; assay type: ADME, organism-based
[32] = Effect on cleaved PARP level in human NCI-H1417 cells assessed as fold change at 100 nM measured after 14 days by Western blot analysis (reference value: 1.00); assay type: functional; settings: time 14 day
[33] = Effect on cleaved PARP level in human NCI-H889 cells assessed as fold change at 100 nM measured after 10 days by Western blot analysis (reference value: 1.00); assay type: functional; settings: time 10 day
NCI-H1417 [34] = assay: Antitumor activity against human NCI-H1417 cells xenografted in nude mouse assessed as mean tumor volume at 1.5 mg/kg, po administered daily measured twice weekly (reference value: 2262 +/- 299 mm3); assay type: functional
[35] = Effect on cleaved PARP level in human NCI-H524 cells assessed as relative expression at 1000 nM measured after 14 days by Western blot analysis (reference value: […]); assay type: functional; settings: time 14 day
[36] = AUC (0 to infinity) in mouse at 5.5 mg/kg, ip by HPLC/MS/MS analysis; assay type: ADME, organism-based; settings: in vivo

O=C(O)c1ccc(CN2CCC(CN[C@@H]3C[C@H]3c3ccccc3)CC2)cc1 [GSK2879552]
fold change (FC) [1]: 0.89
Activity [2]: 2.43
fold change (FC) [3]: 1.84
Activity [4]: 0.36
fold change (FC) [5]: 1.33
Activity [6]: 0.52
fold change (FC) [7]: 1.62
fold change (FC) [8]: 0.79
Activity [9]: 0.02
Activity [10]: 0.03
Cmax [11]: 355 ng/mL
Activity [12]: 0.48
inhibition (NCI-H526 [13]): Dose-Dependent Effect
inhibition in vivo at 1.5 mg/kg (NCI-H510A [14]): 38%
fold change (FC) [15]: 1.06
Activity [16]: 0.22
Activity [17]: Toxic
Activity [18]: 0.62
fold change (FC) [19]: 1.84
fold change (FC) [20]: 1.22
Activity (NCI-H1417 [21]): Tde
inhibition (NCI-H1417 [22]): Dose-Dependent Effect
inhibition (NCI-H526 [23]): Dose-Dependent Effect
fold change (FC) [24]: 2.18
Activity (NCI-H510A [25]): inactive
inhibition in vivo at 0.5 mg/kg (NCI-H526 [26]): 48%
fold change (FC) [27]: 0.81
inhibition (NCI-H526 [28]): Dose-Dependent Effect
fold change (FC) [29]: 0.99
Activity (NCI-H526 [30]): inactive
Tmax [31]: 15 min
fold change (FC) [32]: 0.83
fold change (FC) [33]: 2.25
Activity (NCI-H1417 [34]): 546 mm3
Activity [35]: 1.17

c1ccc([C@@H]2C[C@H]2NC2CCNCC2)cc1
AUC(0-inf) [36]: 938 ng·h/mL
